Structures are written as SMILES. pKi: −log10 of the molar value.

What is called inhibition is the percentage by which the read-out fell short of the control. The term pKi denotes −log10 of the Ki, conventionally taken in molar units.

Assay [1] deals with 5-hydroxytryptamine receptor 1B (Homo sapiens) (UniProt P28222). Description: Displacement of [3H]5-CT from human 5-HT1BR expressed in HEK cell membranes at 10 uM incubated for 90 mins under dark condition by microbeta scintillation counting method relative to control. The following applies: HEK293.
The target in assay [2] is 5-hydroxytryptamine receptor 1D (Homo sapiens) (UniProt P28221). Kind of assay: Displacement of [3H]5-CT from human 5-HT1D receptor expressed in HEK-T cell membranes at 10 uM incubated for 90 mins under dark condition by microbeta scintillation counting method relative to control. On the technique in general: In a radioligand displacement assay an active substance lowers the binding of a labelled ligand.

In assay [3] the target is 5-hydroxytryptamine receptor 1E (Homo sapiens) (UniProt P28566). Kind of assay: Displacement of [3H]5-HT from human 5-HT1E receptor expressed in HEK cell membranes at 10 uM incubated for 90 mins under dark condition by microbeta scintillation counting method relative to control. The following applies: HEK293.
Assay [4] has as its target 5-hydroxytryptamine receptor 4 (Homo sapiens) (UniProt Q13639). Kind of assay: Displacement of [3H]GR113808 from human 5-HT4 receptor at 10 uM incubated for 90 mins under dark condition by microbeta scintillation counting method relative to control.
The target in assay [5] is T1, 5-hydroxytryptamine receptor 3A (Homo sapiens) (UniProt P46098).
T1 sequence (whole entry): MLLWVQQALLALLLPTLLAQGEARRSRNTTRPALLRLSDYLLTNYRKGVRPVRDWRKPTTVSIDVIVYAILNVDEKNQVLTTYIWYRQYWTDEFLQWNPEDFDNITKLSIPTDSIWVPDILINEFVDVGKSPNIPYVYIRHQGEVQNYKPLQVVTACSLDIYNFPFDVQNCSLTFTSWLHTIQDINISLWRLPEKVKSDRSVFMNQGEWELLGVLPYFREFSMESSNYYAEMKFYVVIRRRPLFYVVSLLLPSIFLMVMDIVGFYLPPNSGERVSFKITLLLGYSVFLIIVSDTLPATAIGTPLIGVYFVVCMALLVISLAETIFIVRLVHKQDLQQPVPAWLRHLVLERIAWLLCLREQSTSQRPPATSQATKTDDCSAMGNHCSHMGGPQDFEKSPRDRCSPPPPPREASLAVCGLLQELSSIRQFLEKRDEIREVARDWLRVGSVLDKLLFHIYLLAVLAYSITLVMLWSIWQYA
Description: Displacement of [3H]GR65630 from human 5-HT3 receptor expressed in HEK-T cell membranes at 10 uM incubated for 90 mins under dark condition by microbeta scintillation counting method relative to control.

Assay [6] deals with 5-hydroxytryptamine receptor 5A (Homo sapiens) (UniProt P47898). Description: Displacement of [3H]LSD from human 5-HT5A receptor expressed in Flp-In-CHO cell membranes incubated for 90 mins under dark condition by microbeta scintillation counting method relative to control. Details: concentration or dose not given beside the values.
Assay [7] addresses T2, 5-hydroxytryptamine receptor 2A (Homo sapiens, UniProt P28223). Kind of assay: Displacement of [3H]ketanserin from human 5-HT2A receptor expressed in HEK-T cell membranes at 10 uM incubated for 90 mins under dark condition by microbeta scintillation counting method relative to control.
The target in assay [8] is T3, 5-hydroxytryptamine receptor 2C (Homo sapiens, UniProt P28335).
T3 sequence (P28335 whole entry): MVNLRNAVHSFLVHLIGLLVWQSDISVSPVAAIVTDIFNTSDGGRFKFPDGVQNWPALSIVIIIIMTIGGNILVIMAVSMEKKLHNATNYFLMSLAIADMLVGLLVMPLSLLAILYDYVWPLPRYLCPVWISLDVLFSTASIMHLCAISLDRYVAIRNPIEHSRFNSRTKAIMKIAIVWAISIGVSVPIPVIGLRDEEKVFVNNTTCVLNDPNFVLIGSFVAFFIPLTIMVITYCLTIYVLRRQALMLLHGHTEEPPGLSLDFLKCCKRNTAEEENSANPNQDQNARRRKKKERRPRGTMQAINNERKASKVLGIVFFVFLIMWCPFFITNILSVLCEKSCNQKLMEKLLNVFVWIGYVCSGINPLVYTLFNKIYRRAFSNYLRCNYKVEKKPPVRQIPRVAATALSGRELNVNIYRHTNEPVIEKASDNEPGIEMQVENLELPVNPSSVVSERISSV
Description: Displacement of [3H]mesulergine from human 5-HT2CR expressed in Flp-In HEK cell membranes incubated for 90 mins under dark condition by microbeta scintillation counting method. Details: species or system HEK293.

Assay [9] has as its target T4, 5-hydroxytryptamine receptor 2C (Homo sapiens) (UniProt P28335).
T4 sequence (whole entry): T3 sequence (P28335 whole entry)
Description: Displacement of [3H]mesulergine from human 5-HT2CR expressed in Flp-In HEK cell membranes at 10 uM incubated for 90 mins under dark condition by microbeta scintillation counting method relative to control. The following applies: HEK293.

The target in the next assay is T5, Adenosine receptor A1 (Homo sapiens, UniProt P30542).
T5 sequence (P30542 whole entry): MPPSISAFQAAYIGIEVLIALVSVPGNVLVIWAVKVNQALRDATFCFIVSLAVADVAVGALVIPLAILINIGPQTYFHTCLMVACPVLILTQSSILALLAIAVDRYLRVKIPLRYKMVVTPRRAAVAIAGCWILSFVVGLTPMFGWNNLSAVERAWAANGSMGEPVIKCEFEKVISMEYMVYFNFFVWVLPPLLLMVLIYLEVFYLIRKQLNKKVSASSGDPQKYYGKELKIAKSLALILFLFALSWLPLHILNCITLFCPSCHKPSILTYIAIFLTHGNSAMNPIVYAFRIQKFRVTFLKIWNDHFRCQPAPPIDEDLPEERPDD
Kind of assay: Displacement of [3H]N6-phenylisopropyladenosine from recombinant human A1AR expressed in CHO cell membranes after 60 mins by liquid scintillation counting method.

The target in the next assay is T6, Adenosine receptor A3 (Homo sapiens, UniProt P0DMS8).
T6 sequence (P0DMS8 whole entry): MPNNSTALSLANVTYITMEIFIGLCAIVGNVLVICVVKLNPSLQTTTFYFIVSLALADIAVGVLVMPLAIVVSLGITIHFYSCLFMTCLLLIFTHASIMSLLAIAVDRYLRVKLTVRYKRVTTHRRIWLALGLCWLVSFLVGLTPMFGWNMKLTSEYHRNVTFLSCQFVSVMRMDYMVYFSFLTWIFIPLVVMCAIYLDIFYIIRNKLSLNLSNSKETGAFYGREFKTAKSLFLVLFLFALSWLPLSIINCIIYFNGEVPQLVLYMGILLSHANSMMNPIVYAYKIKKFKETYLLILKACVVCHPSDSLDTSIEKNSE
Kind of assay: Displacement of [125l]N 6-(4-amino-3-iodobenzyl)adenosine-5'-N-methyluronamide from recombinant human A3AR expressed in CHO cell membranes after 60 mins by gamma counting method.

Assay [10] concerns the target T3, 5-hydroxytryptamine receptor 2C. Description: Antagonist activity at human 5-HT2CR expressed in Flp-In HEK cells assessed as inhibition of serotonin induced calcium mobilization preincubated for 5 to 10 mins followed 5-Ht addition by Fluo-4 dye based FLIPR assay. The assay is classed as functional, cell-based, HEK293. (In general: A change in cytosolic calcium serves as a functional read-out for many receptors and channels.)

Assay [11] has as its target T2, 5-hydroxytryptamine receptor 2A. Description: Displacement of [3H]ketanserin from human 5-HT2A receptor expressed in HEK-T cell membranes incubated for 90 mins under dark condition by microbeta scintillation counting method.
In assay [12] the target is T7, 5-hydroxytryptamine receptor 2B (Homo sapiens, UniProt P41595). Kind of assay: biochemical. In kind it is cell-based, HEK293.
Assay [13] concerns the target T7, 5-hydroxytryptamine receptor 2B. The following applies: HEK293, at 10 µM.

Sequence of 5-hydroxytryptamine receptor 1E (Homo sapiens) (P28566 whole entry): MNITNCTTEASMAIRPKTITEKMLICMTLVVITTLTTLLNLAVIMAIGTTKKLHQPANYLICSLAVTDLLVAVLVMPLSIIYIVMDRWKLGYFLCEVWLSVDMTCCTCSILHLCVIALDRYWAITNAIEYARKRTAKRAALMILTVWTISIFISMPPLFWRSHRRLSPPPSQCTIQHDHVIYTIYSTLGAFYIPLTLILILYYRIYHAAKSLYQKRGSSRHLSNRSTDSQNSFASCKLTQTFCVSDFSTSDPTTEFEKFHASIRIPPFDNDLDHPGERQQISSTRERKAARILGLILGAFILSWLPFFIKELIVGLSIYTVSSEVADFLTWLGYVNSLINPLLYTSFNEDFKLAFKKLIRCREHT
T7 sequence (P41595 whole entry): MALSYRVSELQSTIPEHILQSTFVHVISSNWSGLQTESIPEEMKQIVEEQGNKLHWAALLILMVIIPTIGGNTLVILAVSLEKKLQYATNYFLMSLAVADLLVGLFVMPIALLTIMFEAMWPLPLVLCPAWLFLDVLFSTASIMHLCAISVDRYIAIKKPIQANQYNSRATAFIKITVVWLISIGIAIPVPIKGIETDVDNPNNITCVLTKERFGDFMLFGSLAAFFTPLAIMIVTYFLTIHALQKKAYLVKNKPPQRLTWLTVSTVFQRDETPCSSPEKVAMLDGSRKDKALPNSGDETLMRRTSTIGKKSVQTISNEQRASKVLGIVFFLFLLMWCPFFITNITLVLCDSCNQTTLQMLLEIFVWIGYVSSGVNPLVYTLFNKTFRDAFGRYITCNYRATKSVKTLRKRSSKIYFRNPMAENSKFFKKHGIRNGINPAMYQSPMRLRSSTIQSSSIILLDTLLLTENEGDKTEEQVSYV
Sequence of 5-hydroxytryptamine receptor 1D (Homo sapiens) (P28221 whole entry): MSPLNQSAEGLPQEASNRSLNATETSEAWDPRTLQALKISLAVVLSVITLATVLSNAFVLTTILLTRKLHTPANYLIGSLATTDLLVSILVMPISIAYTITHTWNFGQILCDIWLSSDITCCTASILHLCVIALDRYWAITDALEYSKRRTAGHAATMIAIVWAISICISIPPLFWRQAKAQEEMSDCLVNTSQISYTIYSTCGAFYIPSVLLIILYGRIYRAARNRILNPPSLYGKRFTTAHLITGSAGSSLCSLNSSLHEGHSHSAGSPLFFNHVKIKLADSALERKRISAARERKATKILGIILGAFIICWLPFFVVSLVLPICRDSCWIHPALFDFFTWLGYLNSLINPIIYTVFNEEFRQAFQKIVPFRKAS
Sequence of 5-hydroxytryptamine receptor 5A (Homo sapiens) (P47898 whole entry): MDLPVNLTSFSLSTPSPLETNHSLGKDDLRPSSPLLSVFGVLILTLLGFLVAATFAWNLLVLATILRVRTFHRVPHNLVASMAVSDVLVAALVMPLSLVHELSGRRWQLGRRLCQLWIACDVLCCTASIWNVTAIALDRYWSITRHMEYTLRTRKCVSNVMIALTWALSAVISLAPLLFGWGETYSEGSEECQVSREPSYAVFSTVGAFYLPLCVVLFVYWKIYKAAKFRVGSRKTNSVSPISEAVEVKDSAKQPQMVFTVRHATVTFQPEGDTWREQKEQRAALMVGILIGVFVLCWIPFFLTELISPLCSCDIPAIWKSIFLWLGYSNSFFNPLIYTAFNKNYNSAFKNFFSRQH
Sequence of 5-hydroxytryptamine receptor 4 (Homo sapiens) (Q13639 whole entry): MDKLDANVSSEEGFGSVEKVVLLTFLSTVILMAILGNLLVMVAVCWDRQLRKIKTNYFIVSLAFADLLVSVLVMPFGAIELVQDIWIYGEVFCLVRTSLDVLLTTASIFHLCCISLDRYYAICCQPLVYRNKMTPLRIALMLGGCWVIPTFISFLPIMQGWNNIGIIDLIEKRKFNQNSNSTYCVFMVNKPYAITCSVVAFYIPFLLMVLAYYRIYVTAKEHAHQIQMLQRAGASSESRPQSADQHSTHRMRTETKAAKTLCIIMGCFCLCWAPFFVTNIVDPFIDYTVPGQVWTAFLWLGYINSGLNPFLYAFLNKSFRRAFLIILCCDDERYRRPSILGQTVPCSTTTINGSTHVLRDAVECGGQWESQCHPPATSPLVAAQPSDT
T2 sequence (P28223 whole entry): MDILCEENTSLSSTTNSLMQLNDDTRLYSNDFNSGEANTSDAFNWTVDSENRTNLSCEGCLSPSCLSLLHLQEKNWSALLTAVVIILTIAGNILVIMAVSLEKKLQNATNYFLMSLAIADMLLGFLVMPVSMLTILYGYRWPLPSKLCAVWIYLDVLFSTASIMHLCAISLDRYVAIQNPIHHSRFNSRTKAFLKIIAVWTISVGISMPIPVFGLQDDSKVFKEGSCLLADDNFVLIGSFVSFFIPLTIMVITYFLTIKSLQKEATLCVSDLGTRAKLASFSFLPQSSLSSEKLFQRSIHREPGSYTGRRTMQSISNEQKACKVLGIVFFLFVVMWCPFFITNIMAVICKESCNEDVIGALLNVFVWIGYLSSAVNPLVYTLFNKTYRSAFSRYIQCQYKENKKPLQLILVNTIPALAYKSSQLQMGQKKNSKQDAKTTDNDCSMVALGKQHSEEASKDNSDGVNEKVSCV
Sequence of 5-hydroxytryptamine receptor 1B (Homo sapiens) (P28222 whole entry): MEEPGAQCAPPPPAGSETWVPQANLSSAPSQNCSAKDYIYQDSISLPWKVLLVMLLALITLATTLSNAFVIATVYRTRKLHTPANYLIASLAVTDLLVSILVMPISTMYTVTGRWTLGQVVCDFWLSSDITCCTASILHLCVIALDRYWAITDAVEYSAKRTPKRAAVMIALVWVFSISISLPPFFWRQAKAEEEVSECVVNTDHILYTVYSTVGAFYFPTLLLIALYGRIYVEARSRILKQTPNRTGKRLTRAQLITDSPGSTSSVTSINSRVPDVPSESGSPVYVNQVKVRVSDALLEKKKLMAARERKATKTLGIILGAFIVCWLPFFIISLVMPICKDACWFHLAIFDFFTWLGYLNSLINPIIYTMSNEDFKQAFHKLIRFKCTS

As for `OC[C@@]12C[C@@H]1[C@@H](n1cnc3c(NC(C4CC4)C4CC4)nc(Cl)nc31)[C@H](O)[C@@H]2O`, the inhibition in [1], in assay [2], in assay [3], in assay [4], in assay [5] and in assay [6] was under 50% throughout. Further, the figures for the inhibition in [7] and in [9] were under 10% and over 50%, respectively. Moreover, the negative-log Ki (pKi) is 7.08 in assay [8]; 7.41 on Adenosine receptor A1; 5.80 on Adenosine receptor A3; 6.47 in assay [10]; under 5.00 in [11].
`CNC(=O)[C@@]12C[C@@H]1[C@@H](n1cnc3c(NC(C4CC4)C4CC4)nc(Cl)nc31)[C@H](O)[C@@H]2O`: the inhibition in assay [1], in [2], in assay [3], in assay [4], in assay [5] and in assay [6] was under 50% each time. For the same compound, the inhibition in assay [7] was under 10%; in assay [9] it was over 50%; in [13] it was over 50%. Moreover, the pKi in [12] was 7.64; in assay [8] it was 6.57; at Adenosine receptor A1, 6.96; on Adenosine receptor A3 it was 7.47; in assay [10] it was 6.12; in assay [11], under 5.00.
As for `COC(=O)[C@@]12C[C@@H]1[C@@H](n1cnc3c(NC(C4CC4)C4CC4)nc(Cl)nc31)[C@H](O)[C@@H]2O`, the inhibition in assay [1], in assay [2], in assay [3], in assay [4], in assay [5] and in [6] was under 50% in each case. Also, the inhibition in [7] was under 10%; in assay [9], over 50%; in [13], over 50%. Moreover, the pKi in assay [12] was 7.72; in assay [8], 6.93; at Adenosine receptor A1 it was 6.36; on Adenosine receptor A3 it was 6.12; in [10], 8.39; in assay [11] it was under 5.00.
Regarding `CCOC(=O)[C@@]12C[C@@H]1[C@@H](n1cnc3c(NC(C4CC4)C4CC4)nc(Cl)nc31)[C@H](O)[C@@H]2O`, the inhibition in assay [1], in assay [2], in [3], in assay [4], in assay [5] and in assay [6] was under 50% throughout. Further, the inhibition in assay [9] and in [13] was over 50% throughout. Also, the pKi in [12] was 7.82; in assay [8] it was 7.52; at Adenosine receptor A1, 6.44; on Adenosine receptor A3 it was 6.63; in assay [10], 8.41; in assay [11], under 5.00.

Source of the values: ChEMBL document CHEMBL3862033 (J Med Chem, 2016).
